Molecules are shown by their SMILES. ± gives the expanded uncertainty stated by the source.

A short description of this data set: activity coefficient (dimensionless); of the first substance listed, at infinite dilution; xn = mol fraction of the nth substance listed. The following applies: Liquid, Chromatography, x1 = 0.

With `C#CCCCCCC` [1-octyne] + CCCCn1cc[n+](C)c1.N#CN=C=[N-], the activity coefficient by setting is: (318.15 K) 12.5 ± 0.9; (328.15 K) 13 ± 0.9; (338.15 K) 13.4 ± 0.9; (348.15 K) 13.9 ± 1; (358.15 K) 14.4 ± 1; (368.15 K) 14.8 ± 1.
Turning to `CCCc1ccccc1` [propylbenzene] + CCCCn1cc[n+](C)c1.N#CN=C=[N-], the activity coefficient runs as follows: (318.15 K) 7.36 ± 0.5; (328.15 K) 7.57 ± 0.52; (338.15 K) 7.78 ± 0.53; (348.15 K) 7.98 ± 0.54; (358.15 K) 8.15 ± 0.56; (368.15 K) 8.35 ± 0.57.
With `CC(C)CC(C)(C)C` [2,2,4-trimethylpentane] + CCCCn1cc[n+](C)c1.N#CN=C=[N-], the activity coefficient by setting is: (318.15 K) 111 ± 8; (328.15 K) 105 ± 7; (338.15 K) 101 ± 7; (348.15 K) 96.5 ± 6.6; (358.15 K) 92.8 ± 6.4; (368.15 K) 89.2 ± 6.1.
With `CCCCCCC` [heptane] + CCCCn1cc[n+](C)c1.N#CN=C=[N-], the activity coefficient was found to be 91 ± 6.2 (318.15 K); 87.2 ± 6 (328.15 K); 83.9 ± 5.8 (338.15 K); 80.6 ± 5.5 (348.15 K); 77.8 ± 5.3 (358.15 K); 75.3 ± 5.2 (368.15 K).
In the case of `C=CCCCCCCCC` [1-decene] + CCCCn1cc[n+](C)c1.N#CN=C=[N-], the activity coefficient reads like this: (318.15 K) 134 ± 9; (328.15 K) 128 ± 9; (338.15 K) 123 ± 8; (348.15 K) 119 ± 8; (358.15 K) 115 ± 8; (368.15 K) 111 ± 8.
As to `CCCCC` [pentane] + CCCCn1cc[n+](C)c1.N#CN=C=[N-], the activity coefficient (318.15 K) was 41.7 ± 2.9; the activity coefficient (328.15 K) is 40.1 ± 2.7; the activity coefficient (338.15 K) was found to be 38.6 ± 2.6; the activity coefficient (348.15 K) was 37.3 ± 2.6; the activity coefficient (358.15 K) was found to be 36.1 ± 2.5; the activity coefficient (368.15 K) is 34.9 ± 2.4.
As for `C1CCCCCCC1` [cyclooctane] + CCCCn1cc[n+](C)c1.N#CN=C=[N-], the activity coefficient was 42.4 ± 2.9 (318.15 K); 40.4 ± 2.8 (328.15 K); 38.6 ± 2.6 (338.15 K); 37.1 ± 2.5 (348.15 K); 35.8 ± 2.4 (358.15 K); 34.5 ± 2.4 (368.15 K).
As for `CCOC(C)=O` [ethyl acetate] + CCCCn1cc[n+](C)c1.N#CN=C=[N-], the activity coefficient (318.15 K) amounted to 2.57 ± 0.17; the activity coefficient (328.15 K) amounted to 2.68 ± 0.18; the activity coefficient (338.15 K) stood at 2.79 ± 0.19; the activity coefficient (348.15 K) is 2.91 ± 0.2; the activity coefficient (358.15 K) came to 3 ± 0.2; the activity coefficient (368.15 K) was determined as 3.11 ± 0.21.
As for `c1ccsc1` [thiophene] + CCCCn1cc[n+](C)c1.N#CN=C=[N-], the activity coefficient was determined as 1.14 ± 0.07 (318.15 K); 1.22 ± 0.08 (328.15 K); 1.29 ± 0.08 (338.15 K); 1.36 ± 0.09 (348.15 K); 1.43 ± 0.09 (358.15 K); 1.5 ± 0.1 (368.15 K).
Regarding `C#CCCCCC` [1-heptyne] + CCCCn1cc[n+](C)c1.N#CN=C=[N-], the activity coefficient came to 8.24 ± 0.56 (318.15 K); 8.61 ± 0.59 (328.15 K); 9.02 ± 0.62 (338.15 K); 9.42 ± 0.64 (348.15 K); 9.77 ± 0.67 (358.15 K); 10.2 ± 0.7 (368.15 K).
`CCC(C)CC` [3-methylpentane] + CCCCn1cc[n+](C)c1.N#CN=C=[N-]: the activity coefficient (318.15 K) came out at 53.7 ± 3.7; the activity coefficient (328.15 K) came out at 51.7 ± 3.5; the activity coefficient (338.15 K) came to 50 ± 3.4; the activity coefficient (348.15 K) is 48.4 ± 3.3; the activity coefficient (358.15 K) was found to be 47.1 ± 3.2; the activity coefficient (368.15 K) was 45.6 ± 3.1.
Take `c1ccncc1` [pyridine] + CCCCn1cc[n+](C)c1.N#CN=C=[N-]: the activity coefficient reads like this: (318.15 K) 0.845 ± 0.054; (328.15 K) 0.89 ± 0.06; (338.15 K) 0.94 ± 0.059; (348.15 K) 0.985 ± 0.062; (358.15 K) 1.03 ± 0.06; (368.15 K) 1.08 ± 0.07.
In the case of `COC(C)(C)C` [2-methoxy-2-methylpropane] + CCCCn1cc[n+](C)c1.N#CN=C=[N-], the activity coefficient amounted to 7.13 ± 0.49 (318.15 K); 7.47 ± 0.51 (328.15 K); 7.8 ± 0.53 (338.15 K); 8.14 ± 0.56 (348.15 K); 8.46 ± 0.58 (358.15 K); 8.8 ± 0.6 (368.15 K).
As for `C1CCCC1` [cyclopentane] + CCCCn1cc[n+](C)c1.N#CN=C=[N-], the activity coefficient was 17.4 ± 1.2 (318.15 K); 16.9 ± 1.2 (328.15 K); 16.3 ± 1.1 (338.15 K); 15.9 ± 1.1 (348.15 K); 15.5 ± 1.1 (358.15 K); 15.1 ± 1 (368.15 K).

The record behind these values is the NIST ThermoML archive (doi:10.1016/j.fluid.2016.02.004).
